For the test, the target named is T1, guinea pig trachea (Cavia porcellus, UniProt Q64077).
T1 construct: functional assay in guinea pig trachea; from tissue; host or cells: guinea pig trachea (male animals), tracheal rings
T1 sequence (Q64077 1-402): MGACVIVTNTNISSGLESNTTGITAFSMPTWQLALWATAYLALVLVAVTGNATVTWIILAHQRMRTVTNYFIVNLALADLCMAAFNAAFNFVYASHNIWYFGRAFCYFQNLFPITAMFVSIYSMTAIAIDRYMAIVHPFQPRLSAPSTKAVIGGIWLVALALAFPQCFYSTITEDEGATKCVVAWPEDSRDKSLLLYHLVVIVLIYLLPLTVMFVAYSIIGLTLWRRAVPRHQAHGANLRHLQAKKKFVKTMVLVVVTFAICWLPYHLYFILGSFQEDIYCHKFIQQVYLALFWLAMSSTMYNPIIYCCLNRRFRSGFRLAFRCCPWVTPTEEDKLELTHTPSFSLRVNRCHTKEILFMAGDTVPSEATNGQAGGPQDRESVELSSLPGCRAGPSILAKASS
Put plainly: Guinea Pig Assay (Test B), functional antagonism of NKA or [β-ala8]-NKA(4-10) in guinea pig trachea. It is filed as cell-based. Particulars: read-out: pKB (-log molar KB, apparent dissociation constant) (converted). The protocol:
The chosen agonist is refered to as AG throughout the description.
Male guinea pigs are killed by a sharp blow to the back of the head. The trachea are removed, trimmed of excess tissue and divided into two segments. Each segment is suspended as a ring between stainless steel stirrups in water-jacketed (37.5° C.) tissue baths containing a physiological salt solution of the following composition (mM): NaCl, 119; KCl 4.6; CaCl2, 1.8; MgCl2, 0.5; NaH2 PO4, 1; NaHCO3, 25; glucose, 11; thiorphan, 0.001; and indomethacin, 0.005; gassed continuously with 95% O2 -%5 CO2. […] Contractile responses are measured on a Grass polygraph via Grass FT-03 force transducers.
Tissues are challenged repetitively with a single concentration of AG (10 nM) with intervening 30 min periods with washing to allow the tension to return to baseline levels. […] Percent inhibition is determined when a Compound produces a statistically significant (p<0.05) reduction of the contraction and is calculated using the second contractile response as 100%.
Potencies of selected Compounds are evaluated by calculating apparent dissociation constants (KB) for each concentration tested using the standard equation: […]
where dose ratio=antilog[(AG -log molar EC50 without Compound)-(AG -log molar EC50 with Compound)]. The KB values may be converted to the negative logarithms and expressed as -log molar KB (i.e. pKB). […]

Counter-ions that a name gives are not always drawn.

The results in this text go back to patent publication US5589489A, “Cyclic amide derivatives for treating asthma” (Zeneca Limited, priority 1993, dated 1996).

As to `CN1C(=O)c2ccccc2[C@H]1[C@@H](CCN1CCC(O)(c2ccccc2)CC1)c1ccc(Cl)c(Cl)c1` (single isomer, unassigned) [Example 4, (-)-(3R/3S)-3-[(1S/1R)-1-(3,4-dichlorophenyl)-3-(4-hydroxy-4-phenylpiperidino)propyl]-2-methyl-2,3-dihydroisoindol-1-one hydrochloride], the Kb (usually the equilibrium dissociation constant of an antagonist, usually derived from a functional assay) is 20 nM.
